US20140206702A1, “IMIDAZOPYRIDINE COMPOUNDS, COMPOSITIONS AND METHODS OF USE” (Genentech, Inc., priority 2012, published 2014)

The molecules below were run against T1, TYK2 kinase domain (Homo sapiens, UniProt P29597) (assay: JAK1, JAK2 and TYK2 Inhibition Assay Protocol (Caliper LabChip, isolated kinase domain)). Settings: 1 nM purified TYK2 enzyme, 25 uM ATP, Morrison tight binding model; read-out: Ki values for TYK2 inhibition.
T1 construct: The activity of the isolated JAK1, JAK2 or TYK2 kinase domain was measured
T1 sequence (P29597 897-1176 limits assumed): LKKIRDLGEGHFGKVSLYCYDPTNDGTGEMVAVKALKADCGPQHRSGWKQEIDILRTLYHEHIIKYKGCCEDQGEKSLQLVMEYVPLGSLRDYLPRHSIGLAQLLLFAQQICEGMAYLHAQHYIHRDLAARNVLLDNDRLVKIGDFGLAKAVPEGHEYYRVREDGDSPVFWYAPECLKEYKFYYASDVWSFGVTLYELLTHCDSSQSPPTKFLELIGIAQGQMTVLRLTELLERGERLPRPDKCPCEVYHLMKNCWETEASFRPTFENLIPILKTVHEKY
Type: biochemical
Protocol: The activity of the isolated JAK1, JAK2 or TYK2 kinase domain was measured by monitoring phosphorylation of a peptide derived from JAK3 (Val-Ala-Leu-Val-Asp-Gly-Tyr-Phe-Arg-Leu-Thr-Thr) fluorescently labeled on the N-terminus with 5-carboxyfluorescein using the Caliper LabChip technology (Caliper Life Sciences, Hopkinton, Mass.). To determine the inhibition constants (Ki) of Examples 1-11, compounds were diluted serially in DMSO and added to 50 uL kinase reactions containing 1.5 nM JAK1, 0.2 nM purified JAK2 or 1 nM purified TYK2 enzyme, 100 mM Hepes pH7.2, 0.015% Brij-35, 1.5 uM peptide substrate, 25 uM ATP, 10 mM MgCl2, 4 mM DTT at a final DMSO concentration of 2%. Reactions were incubated at 22° C. in 384-well polypropylene microtiter plates for 30 minutes and then stopped by addition of 25 uL of an EDTA containing solution (100 mM Hepes pH 7.2, 0.015% Brij-35, 150 mM EDTA), resulting in a final EDTA concentration of 50 mM. After termination of the kinase reaction, the proportion of phosphorylated product was determined as a fraction of total peptide substrate using the Caliper LabChip 3000 according to the manufacturer's specifications. Ki values were then determined using the Morrison tight binding model. Morrison, J. F., Biochim. Biophys. Acta. 185:269-296 (1969); William, J. W. and Morrison, J. F., Meth. Enzymol., 63:437-467 (1979).

Row | Ki [pM] | SMILES
1 | 400 | N#Cc1cccc(F)c1-c1nc2ccnc(Nc3cc(N)ncn3)c2[nH]1 [Example 1, 2-(4-(6-aminopyrimidin-4-ylamino)-3H-imidazo[4,5-c]pyridin-2-yl)-3-fluorobenzonitrile]
2 | 2700 | Cc1cc(Nc2nccc3nc(-c4c(C#N)cccc4C#N)[nH]c23)ncn1 [Example 7, 2-(4-(6-methylpyrimidin-4-ylamino)-3H-imidazo[4,5-c]pyridine-2-yl)isophthalonitrile]
3 | 6000 | N#Cc1cccc(F)c1-c1nc2ccnc(NC(=O)C3CC3)c2[nH]1 [Example 11, N-(2-(2-cyano-6-fluorophenyl)-3H-imidazo[4,5-c]pyridin-4-yl)cyclopropanecarboxamide]

Same assay, conditions: Table 1; 1 nM purified TYK2 enzyme, 25 uM ATP, Morrison tight binding model; read-out: TYK2 Ki

Row | SMILES | Ki [pM]
4 | Cc1cc(Nc2nccc3nc(-c4c(F)cccc4C#N)[nH]c23)ncn1 [Example 4, 3-fluoro-2-(4-(6-methylpyrimidin-4-ylamino)-3H-imidazo[4,5-c]pyridine-2-yl)benzonitrile] | 1000
5 | N#Cc1cccc(Cl)c1-c1nc2ccnc(Nc3cc(CO)ncn3)c2[nH]1 [Example 5, 3-chloro-2-(4-(6-(hydroxymethyl)pyrimidin-4-ylamino)-3H-imidazo[4,5-c]pyridin-2-yl)benzonitrile] | 800
6 | N#Cc1cccc(F)c1-c1nc2ccnc(Nc3cc(CO)ncn3)c2[nH]1 [Example 9, 3-fluoro-2-(4-(6-(hydroxymethyl)pyrimidin-4-ylamino)-3H-imidazo[4,5-c]pyridin-2-yl)benzonitrile] | 2000
7 | N#Cc1cccc(Cl)c1-c1nc2ccnc(NC(=O)C3CC3)c2[nH]1 [Example 10, N-(2-(2-chloro-6-cyanophenyl)-3H-imidazo[4,5-c]pyridin-4-yl)cyclopropanecarboxamide] | 1300

More lines, now with the values ahead:

Row | Ki [pM] | SMILES
8 | 800 | Cc1cc(Nc2nccc3nc(-c4c(Cl)cccc4C#N)[nH]c23)ncn1 [Example 3, 3-chloro-2-(4-(6-methylpyrimidin-4-ylamino)-3H-imidazo[4,5-c]pyridine-2-yl)benzonitrile]
9 | 700 | CNc1cc(Nc2nccc3nc(-c4c(F)cccc4C#N)[nH]c23)ncn1 [Example 8, 3-fluoro-2-(4-(6-(methylamino)pyrimidin-4-ylamino)-3H-imidazo[4,5-c]pyridin-2-yl)benzonitrile]
10 | 600 | CNc1cc(Nc2nccc3nc(-c4c(Cl)cccc4C#N)[nH]c23)ncn1 [Example 6, 3-chloro-2-(4-(6-(methylamino)pyrimidin-4-ylamino)-3H-imidazo[4,5-c]pyridin-2-yl)benzonitrile]
11 | 400 | N#Cc1cccc(Cl)c1-c1nc2ccnc(Nc3cc(N)ncn3)c2[nH]1 [Example 2, 2-(4-(6-aminopyrimidin-4-ylamino)-3H-imidazo[4,5-c]pyridine-2-yl)-3-chlorobenzonitrile]
